pIC50: −log10 of the molar value.

Experiment [1] relates to HCT-15. Put plainly: Growth inhibition of human HCT15 cells at 20 ug/ml relative to control. It counts as functional. Particulars: read-out: GI.
The test system of experiment [2] is A549. Nature of the experiment: Growth inhibition of human A549 cells at 20 ug/ml relative to control. It counts as functional. Particulars: read-out: GI.
In another experiment the test system is MDA-MB-231. Put plainly: Growth inhibition of human MDA-MB-231 cells at 20 ug/ml relative to control. The class given is functional. Particulars: read-out: GI.
Experiment [3] deals with HT-29. Nature of the experiment: Growth inhibition of human HT-29 cells at 20 ug/ml relative to control. It counts as functional. Particulars: read-out: GI.
Experiment [4] can be described thus: Growth inhibition of human K562-1 cells at 20 ug/ml relative to control. It counts as functional. Particulars: read-out: GI.
The test system of another experiment is HCT-8. Nature of the experiment: Growth inhibition of human HCT8 cells at 20 ug/ml relative to control. The class given is functional. Particulars: read-out: GI.
Another experiment relates to HepG2. Put plainly: Growth inhibition of human HepG2 cells at 20 ug/ml relative to control. Particulars: read-out: GI. It counts as functional.
Experiment [5] deals with HCT-15. Nature of the experiment: Cytotoxicity against human HCT15 cells at 5 uM after 24 hrs by sulforhodamine B assay relative to control. The class given is functional.
For experiment [6], the system named is HT-29. Put plainly: Cytotoxicity against human HT-29 cells at 10 uM after 24 hrs by sulforhodamine B assay relative to control. It counts as functional.
A short description of experiment [7]: Growth inhibition of human Bre04 cells at 20 ug/ml after 24 hrs by sulforhodamine B assay relative to control. The class given is functional. Particulars: Bre04, 24 h, read-out: GI. In general terms: The SRB assay estimates cell density from bound dye.
The test system of experiment [8] is HCT-15. Put plainly: Cytotoxicity against human HCT15 cells at 10 uM after 24 hrs by sulforhodamine B assay relative to control. It counts as functional.
In experiment [9] the test system is HCT-15. Nature of the experiment: Cytotoxicity against human HCT15 cells at 50 uM after 24 hrs by sulforhodamine B assay relative to control. It counts as functional.
The nature of experiment [10]: Cytotoxicity against human K562-1 cells at 10 uM after 24 hrs by sulforhodamine B assay relative to control. It counts as functional.
Experiment [11] has as its system HT-29. Nature of the experiment: Cytotoxicity against human HT-29 cells at 50 uM after 24 hrs by sulforhodamine B assay relative to control. It counts as functional.
Experiment [12] has as its system HT-29. Nature of the experiment: Cytotoxicity against human HT-29 cells at 100 uM after 24 hrs by sulforhodamine B assay relative to control. The class given is functional.
The nature of experiment [13]: Cytotoxicity against human K562-1 cells at 5 uM after 24 hrs by sulforhodamine B assay relative to control. The class given is functional.
In experiment [14] the test system is HT-29. Put plainly: Cytotoxicity against human HT-29 cells at 20 uM after 24 hrs by sulforhodamine B assay relative to control. It counts as functional.
The nature of experiment [15]: Cytotoxicity against human K562-1 cells at 20 uM after 24 hrs by sulforhodamine B assay relative to control. The class given is functional.
Experiment [16] concerns HCT-15. Put plainly: Cytotoxicity against human HCT15 cells at 100 uM after 24 hrs by sulforhodamine B assay relative to control. It counts as functional.
In experiment [17] the test system is HCT-15. Nature of the experiment: Cytotoxicity against human HCT15 cells at 20 uM after 24 hrs by sulforhodamine B assay relative to control. The class given is functional.
A short description of experiment [18]: Antiproliferative activity against human K562-1 cells after 24 hrs by sulforhodamine B assay relative to control. It counts as functional, cell-based.
Experiment [19] has as its system HCT-15. Nature of the experiment: Antiproliferative activity against human HCT15 cells after 24 hrs by sulforhodamine B assay relative to control. The class given is functional, cell-based. Particulars: HCT-15, 24 h.
The subject of experiment [20] is A549. Nature of the experiment: Cytotoxicity against human A549 cells at 50 uM after 24 hrs by sulforhodamine B assay relative to control. It counts as functional.
The nature of experiment [21]: Cytotoxicity against human K562-1 cells at 100 uM after 24 hrs by sulforhodamine B assay relative to control. The class given is functional.
Experiment [22] in a line: Cytotoxicity against human K562-1 cells at 50 uM after 24 hrs by sulforhodamine B assay relative to control. It counts as functional.
Experiment [23] relates to A549. Put plainly: Cytotoxicity against human A549 cells at 100 uM after 24 hrs by sulforhodamine B assay relative to control. It counts as functional.
Experiment [24] concerns HCT-15. Nature of the experiment: Growth inhibition of human HCT15 cells at 20 ug/ml after 24 hrs by sulforhodamine B assay relative to control. It counts as functional. Particulars: HCT-15, 24 h, read-out: GI.
In experiment [25] the test system is A549. Put plainly: Cytotoxicity against human A549 cells at 5 uM after 24 hrs by sulforhodamine B assay relative to control. It counts as functional.
A short description of experiment [26]: Growth inhibition of human K562-1 cells at 20 ug/ml after 24 hrs by sulforhodamine B assay relative to control. Particulars: read-out: GI. It counts as functional.
In experiment [27] the test system is A549. Put plainly: Antiproliferative activity against human A549 cells after 24 hrs by sulforhodamine B assay relative to control. The class given is functional, cell-based. Particulars: A549, 24 h.
For experiment [28], the system named is HT-29. Put plainly: Growth inhibition of human HT-29 cells at 20 ug/ml after 24 hrs by sulforhodamine B assay relative to control. It counts as functional. Particulars: HT-29, 24 h, read-out: GI.
For experiment [29], the system named is A549. Put plainly: Growth inhibition of human A549 cells at 20 ug/ml after 24 hrs by sulforhodamine B assay relative to control. It counts as functional. Particulars: A549, 24 h, read-out: GI.
Experiment [30] deals with A549. Put plainly: Cytotoxicity against human A549 cells at 10 uM after 24 hrs by sulforhodamine B assay relative to control. It counts as functional.
The subject of experiment [31] is A549. Put plainly: Cytotoxicity against human A549 cells at 20 uM after 24 hrs by sulforhodamine B assay relative to control. It counts as functional.

For the compound `O=C1[C@@H]2CCCN2C(=O)/C(=C\c2ccccc2)N1OC1CCCCC1`, the inhibition of growth at 20 µg/mL with HCT-15 [1] came to 72.3%; in the experiment on A549 [2] it was 33.8%; in the experiment on MDA-MB-231 it was 17.3%; in the experiment on HT-29 [3], 69.4%; in experiment [4], 78.2%; in the experiment with HCT-8, 76.3%. In the experiment on HepG2, the inhibition of growth at 20 µg/mL is 68.5%.
Regarding `CON1C(=O)[C@@H]2CCCN2C(=O)/C1=C\c1ccccc1`, the Activity in the experiment on HCT-15 [5] came out at 37.3%; with HT-29 [6] it was 28.1%; with HCT-15 [8] it was 46.8%; in the experiment on HCT-15 [9], 82.6%; in experiment [10], 36.2%; with HT-29 [11] it was 56.4%. Further, the Activity in the experiment on HT-29 [12] amounted to 88.6%; in [13] it was 24.4%; in the experiment with HT-29 [14], 34.9%; in [15], 55.4%; in the experiment with HCT-15 [16] it was 96.5%; in the experiment on HCT-15 [17] it was 60.5%. The Activity in the experiment with A549 [20] worked out at 22.4%; in experiment [21] it was 98.6%; in experiment [22], 87.3%; in the experiment with A549 [23], 50.5%. Moreover, the inhibition of growth at 20 µg/mL in experiment [7] turned out to be 24.5%; with HCT-15 [1], 88.8%; in the experiment on A549 [2] it was 26.6%; in the experiment with MDA-MB-231, 23.5%; in the experiment on HT-29 [3] it was 65.4%; in [4] it was 90.4%. Also, the inhibition of growth at 20 µg/mL in the experiment on HCT-8 worked out at 78.8%; in the experiment with HepG2, 62.2%. Moreover, the pIC50 (commonly the IC50 on a negative log10 scale, so that one unit is a factor of ten) in experiment [18] was 4.75; in the experiment on HCT-15 [19] it was 4.85.
For the compound `COc1cc(/C=C2\C(=O)N3CCC[C@H]3C(=O)N2OCc2ccc(Cl)cc2)cc(OC)c1OC`, the Activity is reported as 42.4% in the experiment with HCT-15 [5]; 24.2% with HT-29 [6]; 4.03% in the experiment on A549 [25]; 60.5% in the experiment with HCT-15 [8]; 94.4% with HCT-15 [9]; 58.1% in experiment [10]. The Activity turned out to be 55.7% in the experiment with HT-29 [11]; 86.8% in the experiment on HT-29 [12]; 36.7% in experiment [13]; 39.2% in the experiment on HT-29 [14]; 73.9% in experiment [15]; 98.6% in the experiment on HCT-15 [16]. Besides, the Activity in the experiment with HCT-15 [17] is on record as 81.6%; with A549 [20], 81.8%; with A549 [30], 48.1%; in the experiment on A549 [31], 63.4%; in [21], 97.8%; in experiment [22] it was 96.5%. This compound returned an Activity in the experiment with A549 [23] of 91.7%. For the same compound, the inhibition of growth at 20 µg/mL was 92.6% in the experiment with HCT-15 [24]; 50.3% in [7]; 95.7% in [26]; 53.2% in the experiment on HT-29 [28]; 76.6% in the experiment with A549 [29]. Besides, the pIC50 is 4.94 with A549 [27], 5.14 in experiment [18] and 5.07 with HCT-15 [19].
Turning to `CCON1C(=O)[C@@H]2CCCN2C(=O)/C1=C\c1ccccc1`, the inhibition of growth at 20 µg/mL came to 21.9% in [7], 42.6% in experiment [26], 62.8% in the experiment with HT-29 [28] and 25.3% in the experiment with A549 [29].
In the case of `COc1cc(/C=C2\C(=O)N3CCC[C@H]3C(=O)N2OCc2cccnc2)cc(OC)c1OC`, the inhibition of growth at 20 µg/mL in the experiment with HCT-15 [24] was 78.7%; in the experiment with HT-29 [28], 30.7%; in the experiment with A549 [29] it was 27.1%.
For `COc1cc(/C=C2\C(=O)N3CCC[C@H]3C(=O)N2OCc2ccccc2)cc(OC)c1OC`, the inhibition of growth at 20 µg/mL with HCT-15 [1] amounted to 74.2%; in the experiment with A549 [2], 8.9%; with MDA-MB-231, 43.2%; in the experiment on HT-29 [3], 70.1%; in [4] it was 73.2%; in the experiment on HCT-8 it was 79.1%. In the experiment with HepG2, the inhibition of growth at 20 µg/mL worked out at 75%.

The record behind these values is ChEMBL document CHEMBL4428092, “Synthesis and activity evaluation of the cyclic dipeptides arylidene N-alkoxydiketopiperazines” (Bioorg Med Chem, 2016).
